A short description of series [1]: Stability test of prodrug in simulated lung fluids (Gamble's buffer, ALF buffer) at 37° C., HPLC ratio of prodrug and hydrolyzate. Type of series: physicochemical. The conditions noted are these: for hydrolysis: linear hydrolysis; for ratio of the hydrolysis: within half an hour, ratio maintained for the next 20 hours. The protocol: (§1) Two simulated lung fluids including Gamble's buffer and ALF buffer were prepared according to literature reports (Marques M. R. C., Loebenberg R., Almukainzi M., Simulated Biological Fluids with Possible Application in Dissolution Testing, Dissolution Technologies, 2011, 18(3): 15-28) to test the prodrug stability in simulated lung fluids. In addition, according to the need for animal experimental preparations and sample analysis, three different solvents were prepared: vehicle for animal experiments (water with 5% ethanol), anhydrous ethanol and acetonitrile. They were used to test the stability of pre-dose formulations in animals and collected samples during analysis. Dissolve example 1 compound (2 mg) and example 2 compound (2 mg) in 1 mL of the above-filtered buffer or solvent, respectively. Observe whether there is undissolved particulate matter after vortex shaking, and then filter the suspension or solution to remove undissolved compounds and immediately take 100 μL as the sample at the start of the stability test. Then the ratio of prodrug and hydrolyzate (namely compound 52 in WO 2018/175173 A1, used as a control) was analyzed by HPLC. Afterwards the samples in the two simulated lung fluids were placed on an orbital shaker at 37° C. and shaken at 200 rpm, and sampling at 0.5 hours, 1 hour, 2 hours, 4 hours and 20 hours, and the ratio of prodrug and hydrolyzate were analyzed by HPLC immediately. Let the samples dissolved in the three solvents stand at room temperature, sampling at 1 hour, 3 hours, and 18 hours, and the ratio of prodrug and hydrolyzate were immediately detected.

Series [2] in a line: Stability test of prodrug in different solvents (vehicle water with 5% ethanol, anhydrous ethanol, acetonitrile) at room temperature. It counts as physicochemical. The protocol: as §1
A short description of series [3]: In vivo pharmacokinetics in mice, pulmonary drug concentration after intratracheal administration. The conditions noted are these: intratracheal 2 mg/kg. The arrangement: species or system male C57BL/6 mice. An excerpt:
Compare the pharmacokinetics of the final prodrug compound of Example 1 and the control example (compound 52 in WO 2018/175173 A1) in mice:
7-9-week-old male C57BL/6 mice were randomly divided into two groups after the adaptation phase: the elastase inhibitor control group and the Example 1 group.

Setting [4] is: male, C57BL/6, mouse, lung, other: intratracheal, parent compound dosed, read-out: drug concentration in the lungs.

Results on 3 compounds are retold here after patent US12365699B2, “Elastase inhibitor prodrug and use thereof” (SUZHOU ARK BIOPHARMACEUTICAL CO., LTD., priority 2020, dated 2025).

Consider `CC(C)[C@H](NC(=O)c1ccc(C(=O)NCC(=O)O)cc1)C(=O)N1CCC[C@H]1C(=O)N[C@@H](C(C)C)[B-]12OC(=O)C[N+]1(C)CC(=O)O2` (stereo partly drawn) [Example 2, N-(4-(((S)-3-methyl-1-((S)-2-(((R)-2-methyl-1-(6-methyl-4,8-dioxo-1,3,6,2-dioxazaborocan-2-yl)propyl)carbamoyl)pyrrolidin-1-yl)-1-oxobutan-2-yl)carbamoyl)benzoyl)glycine], for which the hydrolysis entry in series [1] (acidic ALF buffer (pH 4.5), in about 15 hours) was “about 50%”; in series [1] (neutral Gamble's buffer (pH 7.4), at 2.5 hours) it was “about 50%”. Moreover, the hydrolysis in acetonitrile entry in series [2] (up to 18 hours) was “did not hydrolyze”. The hydrolysis rate result in series [2] (anhydrous ethanol) is reported as “about 0.5 % per hour”; in series [2] (resolvent) it was “about 1 % hydrolysis per hour”.

With `CC(C)[C@H](NC(=O)[C@@H]1CCCN1C(=O)[C@@H](NC(=O)c1ccc(C(=O)NCC(=O)O)cc1)C(C)C)B(O)O` [control example, N-(4-(((S)-1-((S)-2-(((R)-1-borono-2-methylpropyl)carbamoyl)pyrrolidin-1-yl)-3-methyl-1-oxobutan-2-yl)carbamoyl)benzoyl)glycine, reference compound], the “drug concentration in the lungs” value in series [3] (parent compound dosed, at 12 hours) is “completely cleared”. Further, the concentration at 6 h in series [3] (setting [4]) is 153 ng/g.

Turning to `CC(C)[C@H](NC(=O)[C@@H]1CCCN1C(=O)[C@@H](NC(=O)c1ccc(C(=O)NCC(=O)O)cc1)C(C)C)B1O[C@@H]2C[C@@H]3C[C@@H](C3(C)C)[C@]2(C)O1` [Example 1, N-(4-(((S)-3-methyl-1-((S)-2-(((R)-2-methyl-1-((3aS,4S,6S,7aR)-3a,5,5-trimethylhexahydro-4,6-methanobenzo[d][1,3,2]dioxaborol-2-yl)propyl)carbamoyl)pyrrolidin-1-yl)-1-oxobutan-2-yl)carbamoyl)benzoyl)glycine], the “conversion of prodrug in mice” value in series [3] is recorded as “quickly converted into the control example”. The “effect on lung concentration and residence time of the control example compared to direct administration of the control example” value in series [3] is “greatly increases the concentration and residence time of the control example in the lungs”. For the same compound, in series [3] (setting [4]), the concentration at 6 h turned out to be 1070 ng/g. Also, the concentration at 12 h in series [3] (male, C57BL/6, mouse, lung, other: intratracheal, parent compound dosed, at 12 hours, read-out: drug concentration in the lungs) was 120 ng/g. Also, the “ratio of the hydrolysis” value in series [1] (acidic ALF buffer (pH 4.5)) is 40%; in series [1] (neutral Gamble's buffer (pH 7.4)), 25%. In addition, the hydrolysis in acetonitrile entry in series [2] (up to 18 hours) was “hardly hydrolyzed”. Moreover, in series [2] (anhydrous ethanol, up to 18 hours), the “hydrolysis in anhydrous ethanol” value was “hardly hydrolyzed”. For the same compound, the “hydrolyzed in the resolvent” value in series [2] (resolvent, after 18 hours) is listed as “about 20%”; in series [2] (resolvent, in 3 hours), “about 18%”.
